Test results taken from patent publication US5008294A, “Methods of treating tumors with compositions of catecholic butanes” (priority 1987, dated 1991).
Like-named read-outs stand apart in the source and are kept apart here.

Experiments:
[1] = system: human breast adenocarcinoma, MX-1; assay: Antineoplastic activity by topical application in athymic mice implanted intradermally with human breast adenocarcinoma MX-1 (Examples 7 and 8); type: in vivo; settings: 4.4 wt/wt% composition (Table 8)
Experimental: A composition containing 17.6% NDGA and 1% BHT in Pego 400 was tested for antineoplastic activity in athymic mice implanted with human breast adenocarcinoma, MX-1. Each animal was innoculated intradermally on the dorsum near the nape of the neck with 0.5 ml of a MX-1 homogenate. The animals were treated by topical application with the NDGA composition after day 23. Compositions containing 4.4 wt/wt% of meso and DL NDGA were tested for efficacy against the MX-1 tumor as in Example 7.

[2] = system: human lung tumor cell line LX-T; assay: Antitumor effect against human lung tumor cell line LX-T (clonogenic assay / DNA flow cytometry with DAPI, Example 5); type: cell-based
Experimental: The antitumor effect of NDGA against the human lung tumor cell line LX-T was determined utilizing a clonogenic assay.
Serial dilutions of the test stock solutions were made in 15 ml of Ca^2+ --and Mg^2+ --free Hank's balanced salt solution (HBSS).
The LX-T cells were incubated in the presence of various amounts of NDGA, and the antitumor effect was determined by measuring the DNA […] of the LX-T nuclei using DNA flow cytometric analysis with a DNA-specific fluorochrome, 4', 6-diamidino-2-phenylindole (DAPI).

[3] = system: MC-1 equine sarcoid-derived cell line; assay: Inhibition of in vitro colony growth of MC-1 equine sarcoid-derived cell line (Example 4); type: cell-based; settings: for inhibition at 18 µM / inhibition at 27 µM / inhibition at 56 µM: Equus caballus, 336 h; for inhibition at 18 µM: 18 MicroMolar; for inhibition at 27 µM: 27 MicroMolar; for inhibition at 56 µM: 56 MicroMolar
Experimental: (§1) Single cell suspensions of tumor cells harvested from culture flasks were exposed to the different compositions of NDGA for one hour at 37° C in liquid medium, and the cells were then washed twice, suspended in agarose medium and plated and the number of colony forming cells were determined. Results are expressed as percent inhibition of survival of clonogenic cells in treated cultures relative to nontreated control cultures. Significant anticancer activity was defined as>70% inhibition of the survival of colony-forming (tumor) cells.
Compositions of NDGA were tested for their ability to inhibit in vitro growth of the MC-1 equine sarcoid-derived cell line, in experiments similar to those of Example 3.

[4] = system: MX-1 (human breast adenocarcinoma) cells; assay: In vivo antitumor effect on MX-1 cells implanted subcutaneously in nude mice, intratumoral injection (Example 6); settings: 0.1 ml injected directly into the tumor
Experimental: The in vivo antitumor effect of NDGA at various survival levels was determined using MX-1 (human breast adenocarcinoma) cells implanted subcutaneously in the flank of nude mice.
Tumors which reached the 25-100 mm^2 range were used for the experiment. 0.1 ml of the test compound in solution was injected directly into the tumor. The tumors were measured periodically to determine their weight until 60 days after the initial treatment or all mice had died.

[5] = system: lung squamous cell carcinoma (LX-1); assay: Effect against lung squamous cell carcinoma (LX-1); set-up: species or system human
tumor cells = assay: Enhancement of X-ray radiation effectiveness by topical application; settings: applied topically; without radiation toxicity to surrounding uninvolved skin
Source text: Consequently, the catecholic butanes may be useful in the treatment of cutaneous afflictions such as Kaposi's sarcoma.

tumor induction by DMBA = assay: Anticarcinogenic activity in mice: NDGA+DMBA+TPA (Example 9); type: in vivo, SENCAR mice; settings: NDGA 3 mg topical, five consecutive days before DMBA and TPA
Experimental: (§2) Mice were exposed to dimethyl benzanthracene (DMBA), a classical tumor inducer, and to phorbol ester (TPA), a classical tumor promoter, after having been treated with NDGA.
(§3) Twenty mice were included in each of the following groups:
(§4) 1. Positive control group: DMBA+TPA. Female SENCAR mice 6-8 weeks old received a single topical application of […] of DMBA in 0.2 ml of acetone as the initiating agent. After one week, animals received twice weekly applications of tumor promoter TPA in 0.1 ml of acetone. Tumor formation was recorded weekly.
3. Anticarcinogenic activity: NDGA+DMBA+TPA. For five consecutive days animals received topical applications of NDGA (3 mg.) in 0.2 ml of acetone. 24 hours after the last treatment with NDGA, animals received DMBA and TPA exactly as in the positive control group.

[6] = Absorption of harmful sunlight (ultraviolet) radiation (Example 10); type: physicochemical
Experimental: The ability of NDGA to absorb harmful sunlight radiation was tested.

[7] = system: CMT-12 cultured canine breast adenocarcinoma tumor cells; assay: Clonogenic assay, antiproliferative effect on CMT-12 canine breast adenocarcinoma cells (Example 3); type: cell-based; settings: for No. Tumor Colonies Surviving: one hour at 37° C
Experimental: The antiproliferative effect of NDGA on CMT-12 cultured canine breast adenocarcinoma tumor cells was evaluated in clonogenic (cancer cell) assays.
as §1

melanoma (B-16) = assay: Effect against melanoma (B-16); set-up: species or system mouse
[8] = system: several types of cancer cells; settings: Leiter et al.; cited from earlier work
[9] = system: hepatic and colon carcinoma; assay: Treatment of hepatic and colon carcinoma
Source text: The catecholic butanes, when applied parenterally or by injection, are excreted primarily through the liver and gut, and therefore exert preferential cytotoxicity to tumors located in those organs.

[10] = system: human breast adenocarcinoma (MX-1); assay: Effect against human breast adenocarcinoma (MX-1)
[11] = Stability against oxidation; type: physicochemical; settings: for example, by air; more stable at lower pH
Source text: The pH of the formulation is important in assuring stability of the catecholic butane as well as assuring that the formulation is physiologically acceptable to the patient. […] Such oxidation can result in discoloration of the formulation rendering it unacceptable for pharmaceutical use. […] Therefore, it is preferred that if the formulation is to be exposed to oxidizing conditions the pH be maintained below about 7.5 and preferably below about 6 in order to provide maximum stability for the catechol against oxidation. However, if oxidizing conditions can be avoided, for example, by storage of the formulation under an inert atmosphere such as nitrogen, a higher pH can be used. The pH of the formulation may be maintained through the use of toxicologically-acceptable buffers. Such buffers are well known in the pharmaceutical formulation art, and include hydrochloric acid buffer, acid phthalate buffer, phosphate buffer and citric acid/sodium citrate buffer.

TPA tumor promotion = assay: Antipromoting activity in mice: DMBA+NDGA+TPA (Example 9); type: in vivo, SENCAR mice; settings: NDGA 9 mg topical 30 minutes prior to each TPA application
Experimental: as §2, §3, §4
2. Antipromoting activity: DMBA+NDGA+TPA. 30 minutes prior to each application of TPA animals received topical application of NDGA (9 mg.) in 0.2 ml of acetone.

human cancer patients = settings: ingested; Smart et al. 1970; cited from earlier work
[12] = Day 14, mean of 3 experiments, read-out: % Inhibition (Mean)
[13] = Day 14, read-out: Percentage Inhibition of Colony Growth, Experiment #1
[14] = Day 14, read-out: Percentage Inhibition of Colony Growth, Experiment #2
[15] = Day 14, read-out: Percentage Inhibition of Colony Growth, Experiment #3

C[C@H](Cc1ccc(O)c(O)c1)[C@H](C)Cc1ccc(O)c(O)c1 (relative stereo) [dl-NDGA]
Tumor Free 60 Days [1]: 4/5
Tumor Recurrence [1]: 0

COc1cccc2c1C(=O)c1c(O)c3c(c(O)c1C2=O)C[C@@](O)(C(=O)CO)C[C@@H]3O[C@H]1C[C@H](N)[C@H](O)[C@H](C)O1 [Adriamycin, reference compound]
EC50 ([2]; read-out: ED(50)): 25.6 µM

O=c1[nH]cc(F)c(=O)[nH]1 [Composition 5-FU, reference compound]
EC50 ([2]; read-out: ED(50)): 102 µM

CO[C@@]12[C@H](COC(N)=O)C3=C(C(=O)C(C)=C(N)C3=O)N1C[C@@H]1N[C@@H]12 [Mutamycin, reference compound]
EC50 ([2]; read-out: ED(50)): 18.4 µM

C[C@H](Cc1ccc(O)c(O)c1)[C@@H](C)Cc1ccc(O)c(O)c1 [NDGA, meso-1,4-bis (3,4-dihydroxyphenyl)-2,3-dimethylbutane]
inhibition at 18 µM [3, 12]: 32.4%
inhibition at 18 µM [3, 13]: 20.9%
inhibition at 18 µM [3, 14]: 36.7%
inhibition at 18 µM [3, 15]: 39.5%
inhibition at 27 µM [3, 12]: 47%
inhibition at 27 µM [3, 13]: 32.8%
inhibition at 27 µM [3, 14]: 58.9%
inhibition at 27 µM [3, 15]: 49.3%
inhibition at 56 µM [3, 12]: 45.3%
inhibition at 56 µM [3, 13]: 33%
inhibition at 56 µM [3, 14]: 62.2%
inhibition at 56 µM [3, 15]: 40.7%
inhibiting colony growth over the duration of the assay ([3]; especially noticable at 27 and 56 microMolar NDGA): uniformly successful in inhibiting colony growth
ED(50) [4]: 13.62 Micromoles
ED(75) [4]: 25.66 Micromoles
ED(90) [4]: 48.33 Micromoles
ED(95) [4]: 74.34 Micromoles
effectiveness against lung squamous cell carcinoma (LX-1) [5]: particularly effective
enhancement of X-ray radiation effectiveness (tumor cells): enhance the X-ray radiation effectiveness of the tumor cells without radiation toxicity to surrounding uninvolved skin
reduction of the potential of tumor induction by DMBA (tumor induction by DMBA): significantly reduce the potential of tumor induction by DMBA
absorption of sunlight ([6]; result in words): strongly absorb sunlight at wavelengths known to produce sunburn
strong absorption in the ultraviolet region ([6]; solution in methanol): 2816 Angstroms
No. Tumor Colonies Surviving ([7]; 5 MicroMolar): 229.7 ± 10.9
No. Tumor Colonies Surviving ([7]; 10 MicroMolar): 173.3 ± 23.3
No. Tumor Colonies Surviving ([7]; 18 microMolar): 190 ± 16.3
No. Tumor Colonies Surviving ([7]; 27 microMolar): 40 ± 16.3
No. Tumor Colonies Surviving ([7]; 56 microMolar): 3.3 ± 4.7
inhibition at 10 µM ([7]; Canis lupus familiaris, 10 MicroMolar, survival of clonogenic cells relative to nontreated control): 82.5%
inhibition at 18 µM ([7]; Canis lupus familiaris, 18 microMolar, survival of clonogenic cells relative to nontreated control): 90.9%
inhibition at 27 µM ([7]; Canis lupus familiaris, 27 microMolar, survival of clonogenic cells relative to nontreated control): 98.1%
inhibition at 56 µM ([7]; Canis lupus familiaris, 56 microMolar, survival of clonogenic cells relative to nontreated control): 99.8%
effectiveness against melanoma (B-16) (melanoma (B-16)): particularly effective
EC50 ([2]; 50% cell growth inhibition, ± SD, read-out: Calculated ED(50)): 17.6 ± 4.07 µM
IC75 ([2]; 75% cell growth inhibition, ± SD, read-out: Calculated ED(75)): 26.6 ± 12.1 µM
IC90 ([2]; 90% cell growth inhibition, ± SD, read-out: Calculated ED(90)): 41.1 ± 28.1 µM
IC95 ([2]; 95% cell growth inhibition, ± SD, read-out: Calculated ED(95)): 55.9 ± 46.8 µM
EC50 ([2]; comparison with known anticancer drugs (Table 5B), read-out: ED(50) (the source's name)): 17.6 µM
screening result [8]: negative results
effectiveness in treating hepatic and colon carcinoma [9]: effective in treating hepatic and colon carcinoma
Tumor Free 60 Days [1]: 4/5
Tumor Recurrence [1]: 0
effectiveness against human breast adenocarcinoma (MX-1) [10]: particularly effective
susceptibility to oxidation [11]: susceptible to oxidation
prevention of TPA tumor promotion (TPA tumor promotion): nearly completely prevent TPA tumor promotion
clinical outcome (human cancer patients): some positive results
